Read-outs that look alike come from different tables or passages of the source. A value given as a limit tells only on which side of the number the result lay.

The values that follow come from patent publication US11318157B2, “6-6 bicyclic aromatic ring substituted nucleoside analogues for use as PRMT5 inhibitors” (Janssen Pharmaceutica NV, priority 2015, dated 2022).

The target in test [1] is T1, PRMT5-MEP50 enzyme (Homo sapiens, UniProt O14744).
T1 construct: One virus expresses full length human PRMT5 with Flag-tag at N-terminus; Flag (N); purchased Charles River (Argenta); host or cells: insect cells (Sf9), baculovirus co-infection
T1 sequence (O14744 whole entry): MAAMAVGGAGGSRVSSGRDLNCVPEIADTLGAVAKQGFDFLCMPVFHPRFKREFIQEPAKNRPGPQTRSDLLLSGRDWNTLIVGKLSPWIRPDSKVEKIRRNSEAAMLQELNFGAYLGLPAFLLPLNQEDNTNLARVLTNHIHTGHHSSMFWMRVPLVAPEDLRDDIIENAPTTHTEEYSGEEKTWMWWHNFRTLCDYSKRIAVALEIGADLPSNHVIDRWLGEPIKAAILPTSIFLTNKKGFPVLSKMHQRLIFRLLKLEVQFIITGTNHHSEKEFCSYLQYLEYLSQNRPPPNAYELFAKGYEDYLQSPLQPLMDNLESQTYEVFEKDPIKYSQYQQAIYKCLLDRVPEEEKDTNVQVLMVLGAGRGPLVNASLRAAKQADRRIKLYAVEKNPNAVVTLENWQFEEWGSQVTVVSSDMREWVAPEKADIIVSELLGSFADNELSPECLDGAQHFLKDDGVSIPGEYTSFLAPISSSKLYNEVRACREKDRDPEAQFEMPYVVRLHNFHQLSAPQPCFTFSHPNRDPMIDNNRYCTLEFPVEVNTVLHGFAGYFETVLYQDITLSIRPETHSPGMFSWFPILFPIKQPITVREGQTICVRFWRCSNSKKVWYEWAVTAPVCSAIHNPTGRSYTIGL
T1 sequence (Q9BQA1 whole entry partner): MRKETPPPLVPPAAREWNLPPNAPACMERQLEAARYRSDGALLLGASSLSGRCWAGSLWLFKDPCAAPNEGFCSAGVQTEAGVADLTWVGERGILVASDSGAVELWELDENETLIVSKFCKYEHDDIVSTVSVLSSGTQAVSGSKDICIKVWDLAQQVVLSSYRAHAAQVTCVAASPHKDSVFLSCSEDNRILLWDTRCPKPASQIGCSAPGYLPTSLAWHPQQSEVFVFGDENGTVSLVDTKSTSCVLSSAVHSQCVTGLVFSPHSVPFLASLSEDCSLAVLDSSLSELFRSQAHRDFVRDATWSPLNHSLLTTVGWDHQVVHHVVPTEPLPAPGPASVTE
Put plainly: In vitro assay 1b: high throughput mass spectrometer assay of SAH formation, 1.25 nM enzyme, 120 min. Type of test: biochemical. As to conditions: averaged values; PRMT5-MEP50, 1.25 nM enzyme, 120 min; read-out: pIC50 Assay 1b (converted). In short, it runs like this:
(§1)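 Flag-PRMT5/His-MEP50 complex from Sf9 cells, with 1 μM SAM and 0.3 μM full-length histone H2A in pH 8.5 Tris buffer, at 30 °C; 10 nM enzyme for 60 min (1a) or 1.25 nM for 120 min (1b). Formic acid-quenched SAH read by RapidFire MS/MS; 11-point IC50 with Hill fit.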

Test [2] has as its target T1, PRMT5-MEP50 enzyme. The test is described as follows: In vitro assay 1a: high throughput mass spectrometer assay of SAH formation, 10 nM enzyme, 60 min. Type of test: biochemical. As to conditions: averaged values, PRMT5-MEP50, 10 nM enzyme, read-out: pIC50 Assay 1a (converted). In short, it runs like this: as §1
Test [3] has as its system nuclear symmetric Arginine dimethylation in A549 cells. The test is described as follows: PD assay (assay 2): inhibition of nuclear symmetric Arginine dimethylation (SYM10 immunohistochemistry), 48 h. Type of test: cell-based. As to conditions: Homo sapiens. A digest of the protocol: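 Cells seeded at 400/well overnight, then treated 48 h at 37 °C, final DMSO 0.2%. Fixed and stained with SYM10 antibody plus Alexa 488 secondary, Hoechst and CellMask, then imaged on Opera. Normalized to DMSO (high) and 10 μM reference compound (low); averaged pIC50 reported.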

The test system of another test is MCL xenograft models. As to conditions: multiple MCL xenograft models; cited from earlier work.
The next test addresses PRMT5 (Homo sapiens, UniProt O14744). As to conditions: literature statement; cited from earlier work.
The mark [4] stands for this setting: A549, averaged values, PD assay, A549 cells, symmetric Arginine dimethylation, read-out: pIC50 Assay 2 (converted).
Where [5] appears, read: A549, read-out: pIC50 Assay 2 (converted).

Sequence of PRMT5 (O14744 whole entry, species assumed): as the sequence (O14744 whole entry) above
Sequence of PRMT5 (Q9BQA1 whole entry partner, species assumed): as the sequence (Q9BQA1 whole entry partner) above

In the case of `CNc1ccc2ccc(CC[C@H]3C[C@@H](n4ccc5c(C)ncnc54)[C@H](O)[C@@H]3O)cc2n1` [Compound 176], the IC50 is 3.98 nM at PRMT5-MEP50 enzyme [1], 0.501 nM on PRMT5-MEP50 enzyme [2] and 3.16 nM in test [3] (setting [4]).
For `Cc1ncnc2c1ccn2[C@@H]1O[C@H](CCc2ccc3ccc(NCc4ccc(Cl)cc4)nc3c2)[C@@H](O)[C@H]1O` [Compound 177] the same measures were 31.6 nM, 10 nM and 63.1 nM.
With `CNc1ccc2ccc(OC[C@H]3O[C@@H](n4ccc5c(N)ncnc54)[C@H](O)[C@@H]3O)cc2n1` [Compound 185], the IC50 on PRMT5-MEP50 enzyme [1] is 7.94 nM; at PRMT5-MEP50 enzyme [2], 3.98 nM; in test [3] (setting [4]), 50.1 nM.
On to `CNc1ncnc2c1ccn2[C@@H]1O[C@H](COc2ccc3ccc(N)nc3c2)[C@@H](O)[C@H]1O` [Compound 186], for which the IC50 on PRMT5-MEP50 enzyme [1] was 15.8 nM; at PRMT5-MEP50 enzyme [2], 2 nM; in test [3] (setting [4]), 79.4 nM.
For `COc1ncnc2c1ccn2[C@@H]1O[C@H](COc2ccc3ccc(N)nc3c2)[C@@H](O)[C@H]1O` [Compound 187] the same measures were 79.4 nM, 10 nM and 25.1 nM.
Consider `CNC(=O)c1cnc2cc(OC[C@H]3O[C@@H](n4ccc5c(N)ncnc54)[C@H](O)[C@@H]3O)ccc2c1` [Compound 189], for which the IC50 was 1000 nM at PRMT5-MEP50 enzyme [1], 316 nM at PRMT5-MEP50 enzyme [2] and 251 nM in test [3] (setting [4]).
In the case of `Cc1ncnc2c1ccn2[C@@H]1C[C@H](CCc2ccc3ccc(NCC4CC4)nc3c2)[C@@H](O)[C@H]1O` [Compound 190], the IC50 is 5.01 nM on PRMT5-MEP50 enzyme [1], 0.501 nM at PRMT5-MEP50 enzyme [2] and roughly 1.86 nM in test [3] (setting [4]).
With `COc1ncnc2c1ccn2[C@@H]1O[C@H](CCc2ccc3ccc(NCC4CC4)nc3c2)[C@@H](O)[C@H]1O` [Compound 191], the figures for the IC50 (at PRMT5-MEP50 enzyme [1]; on PRMT5-MEP50 enzyme [2]; in test [3] (setting [4])) were 631 nM, 200 nM and 1260 nM, respectively.
For `Cc1ncnc2c1ccn2[C@@H]1O[C@H](CCc2ccc3ccc(N)nc3c2)[C@@H](O)[C@H]1O` [Compound 192] the same measures were 10 nM, 0.631 nM and 3.16 nM.
`Cc1ncnc2c1ccn2[C@@H]1C[C@H](CCc2ccc3ccc(NCc4ccc(Cl)cc4)nc3c2)[C@@H](O)[C@H]1O` [Compound 193]: the IC50 is 7.94 nM at PRMT5-MEP50 enzyme [1], 1 nM at PRMT5-MEP50 enzyme [2] and 3.16 nM in test [3] (setting [4]).
With `Cc1ncnc2c1ccn2[C@@H]1O[C@H](COc2ccc3ccc(NCc4ccc(Cl)cc4)nc3c2)[C@@H](O)[C@H]1O` [Compound 205], the IC50 at PRMT5-MEP50 enzyme [1] was 25.1 nM; on PRMT5-MEP50 enzyme [2], 3.16 nM; in test [3] (setting [4]), 50.1 nM.
For `Nc1ccc2ccc(OC[C@H]3O[C@@H](n4ccc5c(O)ncnc54)[C@H](O)[C@@H]3O)cc2n1` [Compound 208] the same measures were 1260 nM, 2510 nM and greater than 10000 nM.
On to `C=C(C)c1cnc2cc(OC[C@H]3O[C@@H](n4ccc5c(N)ncnc54)[C@H](O)[C@@H]3O)ccc2c1` [Compound 212], for which the IC50 at PRMT5-MEP50 enzyme [1] was 50.1 nM; on PRMT5-MEP50 enzyme [2] it was 20 nM; in test [3] (setting [5]) it was 200 nM.
On to `CCc1cnc2cc(OC[C@H]3O[C@@H](n4ccc5c(N)ncnc54)[C@H](O)[C@@H]3O)ccc2c1` [Compound 213], for which the IC50 at PRMT5-MEP50 enzyme [1] was 15.8 nM; at PRMT5-MEP50 enzyme [2] it was 7.94 nM; in test [3] (setting [4]), 63.1 nM.
For `CC(C)c1cnc2cc(OC[C@H]3O[C@@H](n4ccc5c(N)ncnc54)[C@H](O)[C@@H]3O)ccc2c1` [Compound 214], the figures for the IC50 (at PRMT5-MEP50 enzyme [1]; on PRMT5-MEP50 enzyme [2]; in test [3] (setting [4])) were 100 nM, 31.6 nM and 398 nM, respectively.
On to `Nc1ncc2ccc(CC[C@H]3C[C@@H](n4ccc5c(Cl)ncnc54)[C@H](O)[C@@H]3O)cc2n1` [Compound 215], for which the IC50 on PRMT5-MEP50 enzyme [1] is 39.8 nM; at PRMT5-MEP50 enzyme [2] it was 7.94 nM; in test [3] (setting [4]), 1260 nM.
With `Nc1ncc2ccc(CC[C@H]3C[C@@H](n4ccc5c(N)ncnc54)[C@H](O)[C@@H]3O)cc2n1` [Compound 216], the IC50 on PRMT5-MEP50 enzyme [1] was 7.94 nM; at PRMT5-MEP50 enzyme [2] it was 1 nM; in test [3] (setting [4]), 10 nM.
`Cc1cnc2cc(OC[C@H]3O[C@@H](n4ccc5c(N)ncnc54)[C@H](O)[C@@H]3O)ccc2c1` [Compound 217]: the values for the IC50 (on PRMT5-MEP50 enzyme [1]; on PRMT5-MEP50 enzyme [2]; in test [3] (setting [4])) were 20 nM, 5.01 nM and 39.8 nM, respectively.
Consider `Nc1ccc2ccc(OC[C@H]3O[C@@H](n4ccc5c(N)ncnc54)[C@H](O)[C@@H]3O)cc2n1` [Compound 218], for which the results for the IC50 (on PRMT5-MEP50 enzyme [1]; at PRMT5-MEP50 enzyme [2]; in test [3] (setting [5])) were 5.01 nM, 2.51 nM and 5.01 nM, respectively.
For `Nc1ncnc2c1ncn2[C@@H]1O[C@H](COc2cc3ncc(Br)cc3cc2Cl)[C@@H](O)[C@H]1O` [Compound 219], the IC50 on PRMT5-MEP50 enzyme [1] was greater than 100000 nM; at PRMT5-MEP50 enzyme [2] it was 3980 nM; in test [3] (setting [4]) it was 7940 nM.
For the compound `Nc1ncnc2c1ncn2[C@@H]1O[C@H](COc2ccc3cc(Br)cnc3c2)[C@@H](O)[C@H]1O` [Compound 220], the IC50 is 501 nM at PRMT5-MEP50 enzyme [1], 316 nM at PRMT5-MEP50 enzyme [2] and 2510 nM in test [3] (setting [4]).
Regarding `Nc1ncnc2c1ccn2[C@@H]1C[C@H](COc2ccc3cc(Cl)cnc3c2)[C@@H](O)[C@H]1O` [Compound 222], the IC50 at PRMT5-MEP50 enzyme [1] is 63.1 nM; on PRMT5-MEP50 enzyme [2] it was 31.6 nM; in test [3] (setting [4]) it was roughly 174 nM.
For `NC(=O)c1ccc2ccc(OC[C@H]3O[C@@H](n4ccc5c(N)ncnc54)[C@H](O)[C@@H]3O)cc2n1` [Compound 245] the same measures were 3160 nM, 2000 nM and greater than 20000 nM.
As for `O=C(NC[C@H](O)CN1CCc2ccccc2C1)c1cc(NC2COC2)ncn1` [EPZ015666], the anti-tumour activity entry with MCL xenograft models is recorded as “anti-tumour activity”. Further, the “potency as PRMT5 inhibitor” value at PRMT5 is recorded as “sub-nanomolar”.
